From patent US20240277632A1, “Epinephrine Pharmaceutical Formulations for Intranasal Delivery” (priority 2020, published 2024)

How the values were obtained:
[1] = aqueous epinephrine by the IN route, no enhancer; cited from earlier work
in vivo = settings: rat, in vivo
Protocol: (§1) Each rat was treated with two (2) IN administrations of the respective formulations in Groups A1-A5.
(§2) The analysis of clinical pathology was conducted by a qualified veterinary laboratory (Quality Veterinary Laboratory (QVL), Davis, California, USA).
(§3) Histopathological evaluation was conducted by a qualified pathology laboratory (Experimental Pathology Laboratories, Inc. (EPL), Sterling, Virginia, USA). […] EPL's histopathological findings were graded from 1 to 5, with 1 as minimal, and 5 as severe, depending upon severity.

rats = assay: in vivo; settings: rats
Protocol: as §1, §2, §3

[2] = human; cohort 1 (T2, T4a, Ra)
nasal mucosa of rats = assay: Local toxicity study of STCDC, histopathology of nasal mucosa (Example 5); format: in vivo; settings: rat; after exposure to STCDC and epinephrine
Protocol: Example 5 is an animal study designed to investigate the possible histological effects of bile salts (STCDC) on nasal mucosa of rats when the bile salt is used as an absorption enhancer for IN delivery. […] These IN formulations were administered intranasally to the rats. The histopathology of the rat's nasal tissue was examined to evaluate nasal mucosa tolerance to these tested IN formulations.
In Table 5.1, Group Nos. 2-6 each had excipients of about 8.5 mg/mL sodium chloride, about 3.84 mg/mL citric acid, about 1.5 mg/mL sodium metabisulfite, about 2.3 mg/mL HCl (10% w/v), and a pH adjustor (NaOH) as needed to adjust the pH to 3.6. […]
In total, EPL assessed 48 types of microscopic findings in nasal turbinate cavity level I through IV, as detailed in Table 5.3. […]
In order to quantitatively analyze the data for histopathological findings, the three (3) quantities, (i) total observation point (TOP), denoted as TOP, (ii) Average TOP per item per rat, and (iii) average occurrence for Level i (AOL)-i (i=1-5) were analyzed.
where m1, m2, m3, m4, and m5 are number of findings with Level 1, 2, 3, 4, 5, respectively, from the 48 microscopic histopathological items (as detailed in Table 5.3) assessed by EPL, n is the number of rats examined.

Compound: CNCC(O)c1ccc(O)c(O)c1 (single isomer, unassigned; (-)) [epinephrine, (-)-3,4-Dihy droxy-α-[(methyl-amino)methyl]benzyl alcohol]
- bioavailability (BA) based on AUC in plasma concentration, IN relative to same dose by IM route [1]: approximately 5%

Compound: C[C@H](CCC(=O)NCCS(=O)(=O)[O-])[C@H]1CC[C@H]2[C@@H]3[C@H](O)C[C@@H]4C[C@H](O)CC[C@]4(C)[C@H]3C[C@H](O)[C@]12C.[Na+] [STC, sodium taurocholate]
- NOAEL (in vivo): ≥ 2.5 mg/kg
- NOAEL for bile salt (STC) at an IN delivery, relative dose (rats; 15 mg/mL x 0.025 mL x 2, body weight 0.298 kg): 2.5 mg/kg
- NOAEL for the bile salt (STC), concentration (rats; IN administration, highest studied concentration): exceeding 15 mg/mL
- baseline level of plasma STC [2]: approximately 20 pg/mL

Compound: C[C@H](CCC(=O)NCCS(=O)(=O)[O-])[C@H]1CC[C@H]2C3[C@H](O)C[C@@H]4C[C@H](O)CC[C@]4(C)[C@H]3CC[C@]12C.[Na+] (stereo partly drawn) [STCDC, sodium taurochenodeoxycholate]
- course of observed nasal toxicity items over time (average TOP, FIG. 6D) (nasal mucosa of rats): nearly normal at two weeks post-dose
